Reference: patent US8129380B2, “Phthalazinone derivatives” (AstraZeneca AB, priority 2008, dated 2012)

Tested on: HeLa cells
Assay: Potentiation Factor (PF50): MMS growth inhibition, SRB assay
Type: cell-based
Conditions: MMS 0-10 μg/ml, ratio IC50 control / IC50 + inhibitor; for PF50 (30 nM): PARP inhibitor at 30 nM; for PF50 (200 nM): PARP inhibitor at 200 nM
Experimental: The Potentiation Factor (PF50) for compounds is calculated as a ratio of the IC50 of control cell growth divided by the IC50 of cell growth+PARP inhibitor. Growth inhibition curves for both control and compound treated cells are in the presence of the alkylating agent methyl methanesulfonate (MMS). The test compounds were used at a fixed concentration of 0.2 micromolar. The concentrations of MMS were over a range from 0 to 10 μg/ml.
2,000 HeLa cells were seeded into each well of a flat-bottomed 96-well microtiter plate in a volume of 100 μl and incubated for 6 hours at 37° C. Cells were either replaced with media alone or with media containing PARP inhibitor at a final concentration of 30 nM or 200 nM. […] Cells treated with PARP inhibitor alone were used to assess the growth inhibition by the PARP inhibitor.
Cells were left for a further 16 hours before replacing the media and allowing the cells to grow for a further 72 hours at 37° C. The media was then removed and the cells fixed with 100 μl of ice cold 10% (w/v) trichloroacetic acid. The plates were incubated at 4° C. for 20 minutes and then washed four times with water. Each well of cells was then stained with 100 μl of 0.4% (w/v) SRB in 1% acetic acid for 20 minutes before washing four times with 1% acetic acid. Plates were then dried for 2 hours at room temperature. The dye from the stained cells was solubilized by the addition of 100 μl of 10 mM Tris Base into each well.

Structure (SMILES) | PF50 (30 nM) | PF50 (200 nM)
O=C(c1cc(Cc2n[nH]c(=O)c3ccccc23)ccc1F)N1CCC(Oc2ncccn2)CC1 [Compound 26e] | 2.7 | –
N#Cc1ccnc(OC2CCN(C(=O)c3cc(Cc4n[nH]c(=O)c5ccccc45)ccc3F)CC2)c1 [Compound 26f] | 4.4 | –
CCOC1CCN(C(=O)c2cccc(Cc3n[nH]c(=O)c4cccc(Cl)c34)c2)CC1 [Compound 119b, 5-chloro-4-(3-(4-ethoxypiperidine-1-carbonyl)benzyl)phthalazin-1(2H)-one] | 1.2 | –
COC1(C)CCN(C(=O)c2cc(Cc3n[nH]c(=O)c4ccccc34)ccc2F)CC1 [Compound 24, 4-[[4-fluoro-3-(4-methoxy-4-methylpiperidine-1-carbonyl)phenyl]methyl]-2H-phthalazin-1-one] | 1.5 | –
COc1cccc(OC2CCN(C(=O)c3cc(Cc4n[nH]c(=O)c5ccccc45)ccc3F)CC2)c1 [Compound 8a, 4-[[4-fluoro-3-[4-(3-methoxyphenoxy)piperidine-1-carbonyl]phenyl]methyl]-2H-phthalazin-1-one] | 1.6 | –
O=C(c1cccc(Cc2n[nH]c(=O)c3c(F)ccc(F)c23)c1)N1CCC(Oc2ccccn2)CC1 [Compound 4b] | 2.2 | –
COC[C@H](C)OC1CCN(C(=O)c2cc(Cc3n[nH]c(=O)c4ccccc34)ccc2F)CC1 [Compound 93, (S)-4-(4-fluoro-3-(4-(1-methoxypropan-2-yloxy)piperidine-1-carbonyl)benzyl)phthalazin-1(2H)-one] | 2.8 | –
NC(=O)c1ccnc(OC2CCN(C(=O)c3cc(Cc4n[nH]c(=O)c5ccccc45)ccc3F)CC2)c1 [Compound 26g] | 1.6 | –
O=C(c1cc(Cc2n[nH]c(=O)c3ccccc23)ccc1F)N1CCC2(CC1)OCc1ccccc12 [Compound 9, 4-(4-fluoro-3-(3H-spiro[isobenzofuran-1,4′-piperidine]-1′-ylcarbonyl)benzyl)phthalazin-1(2H)-one] | 1.3 | –
CCOC1CCN(C(=O)c2cc(Cc3n[nH]c(=O)c4cccc(Cl)c34)ccc2F)CC1 [Compound 104b, 5-chloro-4-(3-(4-ethoxypiperidine-1-carbonyl)-4-fluorobenzyl)phthalazin-1(2H)-one] | 2.2 | –
O=C(c1cc(Cc2n[nH]c(=O)c3ccccc23)ccn1)N1CCC(OC2CCCC2)CC1 [Compound 40, 4-((2-(4-(cyclopentyloxy)piperidine-1-carbonyl)pyridin-4-yl)methyl)phthalazin-1(2H)-one] | 2.2 | 19.8
C=CCOC1CCN(C(=O)c2cc(Cc3n[nH]c(=O)c4ccccc34)ccc2F)CC1 [Compound 16] | 3.4 | –
O=C(c1cc(Cc2n[nH]c(=O)c3ccccc23)ccn1)N1CCC(Oc2ccc(F)cc2)CC1 [Compound 6b] | 1.5 | 3.5
COC1CCN(C(=O)c2cc(Cc3n[nH]c(=O)c4ccccc34)ccn2)CC1 [Compound 6c] | 1.2 | 1.5
Cc1cnc(OC2CCN(C(=O)c3cc(Cc4n[nH]c(=O)c5ccccc45)ccc3F)CC2)c(C)n1 [Compound 26i] | 8.0 | –
O=C(c1cc(Cc2n[nH]c(=O)c3ccccc23)ccn1)N1CCC(Oc2ccccn2)CC1 [Compound 6f] | 1.8 | 5.0
CN(C)C(=O)COC1CCN(C(=O)c2cc(Cc3n[nH]c(=O)c4ccccc34)ccc2F)CC1 [Compound 83, 2-(1-(2-fluoro-5-((4-oxo-3,4-dihydrophthalazin-1-yl)methyl)benzoyl)piperidin-4-yloxy)-N,N-dimethylacetamide] | 1.7 | –
O=C(c1cc(Cc2n[nH]c(=O)c3ccccc23)ccc1F)N1CCC(O)CC1 [Compound 2a, 4-(4-fluoro-3-(4-hydroxypiperidine-1-carbonyl)benzyl)phthalazin-1(2H)-one] | – | 3
O=C(O)COC1CCN(C(=O)c2cc(Cc3n[nH]c(=O)c4ccccc34)ccc2F)CC1 [Compound 90, 2-(1-(2-fluoro-5-((4-oxo-3,4-dihydrophthalazin-1-yl)methyl)benzoyl)piperidin-4-yloxy)acetic acid] | 1.1 | –
Cc1cccc(OC2CCN(C(=O)c3cc(Cc4n[nH]c(=O)c5ccccc45)ccc3F)CC2)n1 [Compound 39, 4-(4-fluoro-3-(4-(6-methylpyridin-2-yloxy)piperidine-1-carbonyl)benzyl)phthalazin-1(2H)-one] | 1.4 | –
O=C(COC1CCN(C(=O)c2cc(Cc3n[nH]c(=O)c4ccccc34)ccc2F)CC1)N1CCCCC1 [Compound 113, 4-(4-fluoro-3-(4-(2-oxo-2-(piperidin-1-yl)ethoxy)piperidine-1-carbonyl)benzyl)phthalazin-1 (2H)-one] | 5.8 | 23.1

Structure (SMILES) | PF50 (30 nM) | PF50 (200 nM)
COC1CCN(C(=O)c2cc(Cc3n[nH]c(=O)c4cccc(N)c34)ccc2F)CC1 [Compound 46, 5-amino-4-(4-fluoro-3-(4-methoxypiperidine-1-carbonyl)benzyl)phthalazin-1(2H)-one] | 20.1 | 3.24
COc1ccccc1OC1CCN(C(=O)c2cc(Cc3n[nH]c(=O)c4ccccc34)ccc2F)CC1 [Compound 8d, 4-[[4-fluoro-3-[4-(2-methoxyphenoxy)piperidine-1-carbonyl]phenyl]methyl]-2H-phthalazin-1-one] | 1.2 | –
CC(C)(C)OC1CCN(C(=O)c2cc(Cc3n[nH]c(=O)c4ccccc34)ccc2F)CC1 [Compound 70, 4-(3-(4-tert-butoxypiperidine-1-carbonyl)-4-fluorobenzyl)phthalazin-1(2H)-one] | 32.1 | 19.5
O=C(COC1CCN(C(=O)c2cc(Cc3n[nH]c(=O)c4ccccc34)ccc2F)CC1)N1CC(F)(F)C1 [Compound 89, 4-(3-(4-(2-(3,3-difluoroazetidin-1-yl)-2-oxoethoxy)piperidine-1-carbonyl)-4-fluorobenzyl)phthalazin-1(2H)-one] | 1.9 | –
O=C(c1cc(Cc2n[nH]c(=O)c3ccccc23)ccc1F)N1CCC(Oc2ccccn2)CC1 [Compound 2i] | 16.7 | –
COCCOC1CCN(C(=O)c2cc(Cc3n[nH]c(=O)c4ccccc34)ccc2F)CC1 [Compound 7, 4-(4-fluoro-3-(4-(2-methoxyethoxy)piperidine-1-carbonyl)benzyl)phthalazin-1(2H)-one] | 4.0 | –
O=C(c1cccc(Cc2n[nH]c(=O)c3c(F)ccc(F)c23)c1)N1CCC(OCC2CC2)CC1 [Compound 4a] | 1.2 | –
COC1CCN(C(=O)c2cccc(Cc3n[nH]c(=O)c4cccc(Cl)c34)c2)CC1 [Compound 119a, 5-chloro-4-(3-(4-methoxypiperidine-1-carbonyl)benzyl)phthalazin-1(2H)-one] | 1.0 | –
O=C(c1cc(Cc2n[nH]c(=O)c3ccccc23)ccn1)N1CCC(Oc2ccc(Cl)cc2)CC1 [Compound 6a] | 1.7 | 4.2
O=C(c1cccc(Cc2n[nH]c(=O)c3ccccc23)c1)N1CCC(OC2CCCC2)CC1 [Compound 37, 4-(3-(4-(cyclopentyloxy)piperidine-1-carbonyl)benzyl)phthalazin-1(2H)-one] | 1.7 | 10.6
N#Cc1nccnc1OC1CCN(C(=O)c2cc(Cc3n[nH]c(=O)c4ccccc34)ccc2F)CC1 [Compound 26l] | 1.2 | –
CC(C)OC1CCN(C(=O)c2cccc(Cc3n[nH]c(=O)c4ccccc34)c2)CC1 [Compound 12] | 2.1 | –
O=C(c1cc(Cc2n[nH]c(=O)c3ccccc23)ccc1F)N1CCC(OCCN2CCOCC2)CC1 [Compound 80, 4-(4-fluoro-3-(4-(2-morpholinoethoxy)piperidine-1-carbonyl)benzyl)phthalazin-1(2H)-one] | 1.5 | –
O=C(c1cc(Cc2n[nH]c(=O)c3ccccc23)ccc1F)N1CCC(OCC2CC2)CC1 [Compound 2g] | 4.3 | –
COc1cccc2c(=O)[nH]nc(Cc3ccc(F)c(C(=O)N4CCC(OC)CC4)c3)c12 [Compound 126a, 4-(4-fluoro-3-(4-methoxypiperidine-1-carbonyl)benzyl)-5-methoxyphthalazin-1(2H)-one] | 11.0 | –
Cc1nccnc1OC1CCN(C(=O)c2cc(Cc3n[nH]c(=O)c4ccccc34)ccc2F)CC1 [Compound 26h] | 12.7 | –
CC1(O)CCN(C(=O)c2cc(Cc3n[nH]c(=O)c4ccccc34)ccc2F)CC1 [Compound 74, 4-(4-fluoro-3-(4-hydroxy-4-methylpiperidine-1-carbonyl)benzyl)phthalazin-1(2H)-one] | 1.5 | –
O=C(c1cc(Cc2n[nH]c(=O)c3ccccc23)ccc1F)N1CCC(Oc2ccc(Cl)nc2)CC1 [Compound 26m] | 2.4 | –
COc1ccnc(OC2CCN(C(=O)c3cc(Cc4n[nH]c(=O)c5ccccc45)ccc3F)CC2)c1 [Compound 26k] | 26.8 | –
O=C(c1cc(Cc2n[nH]c(=O)c3ccccc23)ccn1)N1CCC(Oc2ccncc2)CC1 [Compound 6e] | 1.5 | 1.9
CCOC1CCN(C(=O)c2cc(F)cc(Cc3n[nH]c(=O)c4cccc(Cl)c34)c2)CC1 [Compound 129a, 5-chloro-4-(3-(4-ethoxypiperidine-1-carbonyl)-5-fluorobenzyl)phthalazin-1(2H)-one] | 1.0 | –
